pKd: −log10 of the molar value. Read-outs that look alike come from different tables or passages of the source.
What was measured:
[1] = test system: transgenic Plasmodium berghei sporozoites expressing PfCSP (PbPfCSP); assay: Liver burden reduction assay; type: in vivo, Plasmodium berghei in C57BL/6 mice; conditions: C57BL/6 mice, 100 μg mAb i.v., 16 h later 2,000 PbPfCSP sporozoites i.v., bioluminescence 42 h after challenge; relative to naive mice; n=5
Text: P. berghei transgenic parasites expressing PfCSP, GFP and luciferase were generated as previously described.[57] Briefly, P. berghei, strain ANKA 676m1c11, which expresses GFP and luciferase were obtained from MR4 (ATCC). Parasites were transfected to replace the CSP gene with a modified gene consisting of the CSP of Pf. To obtain sporozoites, Anopheles stephensi mosquitos were fed on mice infected with the parasite. 19–22 days later salivary glands from the infected mosquitos were obtained and sporozoites were isolated to infect mice.
Parasite challenge to measure liver burden was assessed as previously described.[57] Briefly, 6-8-week-old C57BL/6 female mice were injected intravenously with 100 μg of the respective mAb. Mice were challenged 16 h later with 2,000 PfCSP-expressing transgenic Pb sporozoites delivered i.v. in HBSS-2% FBS. Mice were injected intraperitoneally with 100 μL of D-luciferin at 30 mg/mL 42 h after sporozoite challenge, anesthetized with isoflurane and imaged in the IVIS Spectrum Imaging System to measure the bioluminescence expressed by the transgenic parasite.

[2] = test system: Pf sporozoites (traversal of HC-04 cells); assay: In vitro sporozoite traversal assay; type: cell-based, Plasmodium falciparum; conditions: Pf NF54 sporozoites pre-incubated with diluted IgG 30 min, rhodamine dextran, 1 h at 37°C, high content imaging
Experimental: Pf NF54 asexual and sexual blood stage parasites were cultured in a semi-automated culture system as described by Ponnudurai.[69]^,[70] Sporozoites were produced by feeding Anopheles stephensi mosquitos (Sind-Kasur Nijmegen strain) using standard membrane feeding of cultured gametocytes, as was described by Feldmann.[71] Salivary glands were dissected, collected in Leibovitz L15 medium supplemented with 1% PenStrep and homogenized in a homemade glass grinder. Sporozoites were counted in a Bürker-Türk counting chamber using phase-contrast microscopy.
Human hepatoma (HC-04) cells were seeded in microtiter plates and grown to near confluence. Fresh P. falciparum salivary gland sporozoites[56] were isolated from Anopheles stephensi mosquitoes and pre-incubated with diluted IgG for 30 min before adding rhodamine dextran. Following incubation for 1 h at 37°C, cell nuclei were stained with DAPI. Fluorescence levels of traversed cells were quantitated using a high content automated imager.

[3] = molecular target: NPDP peptide ([…]); assay: SPR (Carterra LSA), NPDP peptide; type: binding, Plasmodium falciparum; conditions: mAb immobilized on CMD200M chip, peptide 2-fold series, top 8 μg/mL ([…]), 1X HBSTE pH 7.4, 25°C, 1:1 Langmuir model, mean of best triplicate
Text: (§1) Synthetic peptides were custom made by Peptide Speciality Laboratory (PSL), Heidelberg (KQPA ([…]), NPDP ([…]), DND ([…]), NDN ([…]) and NANP3 ([…])), CPC Scientific (NPNA3 ([…]), NANP6 ([…]), KQPA, NPDP and NVDP ([…])) or GenScript (KQPA, NPDP, NANP3, NDN, DND, and NANP5 ([…])). With the exception of NANP6, all other peptides were acetylated at N-termini and amidated at C-termini. NANP6 contained an N-terminal biotin-aminohexanoic acid tag and an unmodified C terminus.
(§2) In each assay, a single analyte peptide antigen (KQPA, NPDP, NVDP, NPNA3 or NANP6) was titrated against the immobilized mAbs. Using 10 mM MES buffer at pH 5.5 with 0.01% Tween 20 as running buffer, the chip was first activated by N-Hydroxysuccinimide (NHS) and 1-Ethyl-3-(3-dimethylaminopropyl) carbodiimide hydrochloride (EDC). Then, PfCSP-specific mAbs were directly immobilized (in 10 mM sodium acetate at pH 4.5) at 10 μg/mL or 5 μg/mL concentrations for 600 s, followed by quenching of unreactive esters using 1 M ethanolamine-HCl at pH 8.5. […]
(§3) The kinetics titration data collected were first pre-processed in the Kinetics (Carterra) software, including reference subtraction, buffer subtraction and data smoothing. The data were then exported and analyzed using the TitrationAnalysis tool developed in-house.[58] […] For antigens with multiple repeats of epitopes, the KD values determined includes avidity effect.

[4] = molecular target: NPNA3 peptide ([…]); assay: SPR (Carterra LSA), NPNA3 peptide; type: binding, Plasmodium falciparum; conditions: mAb immobilized on CMD200M chip, peptide 2-fold series, top 8 μg/mL (6.41 μM), 1X HBSTE pH 7.4, 25°C, 1:1 Langmuir model, mean of best triplicate
Text: as §1, §2, §3

[5] = molecular target: recombinant full-length PfCSP (strain NF54); assay: Biolayer interferometry (BLI) binding to recombinant PfCSP; design: species or system Plasmodium falciparum; conditions: Octet RED96, His-tagged PfCSP 10 μg/mL on Ni-NTA biosensors, 2-fold dilutions of mAb in PBS pH 7.4/0.01% BSA/0.002% Tween 20, 1:1 binding model
Experimental: The resulting plasmid was transfected into FreeStyle HEK293F cells and GFP fluorescence was used to select for single cells via FACS. The selected single cell was expanded and cultured in GIBCO Freestyle 293 Expression Medium and maintained with 200 μg/mL of geneticin (G418 solution; Invivogen). Protein expression was enabled by subculturing the stable cells without antibiotic to a density of 8 x 10^5 cells/mL and harvested after 5–7 days.
After a steady baseline was established, biosensors were dipped into wells containing 2-fold dilutions of each mAb in kinetics buffer. Tips were then immersed back into kinetics buffer for measurement of the dissociation rate. Kinetics data were analyzed using the FortéBio’s Octet Data Analysis software 9.0.0.6, and curves were fitted to a 1:1 binding model.

[6] = molecular target: KQPA peptide ([…]); assay: SPR (Carterra LSA), KQPA peptide; type: binding, Plasmodium falciparum; conditions: mAb immobilized on CMD200M chip, peptide 2-fold series, top 8 μg/mL (5.03 μM), 1X HBSTE pH 7.4, 25°C, 1:1 Langmuir model, mean of best triplicate
Text: as §1, §2, §3

[7] = molecular target: NANP3 peptide ([…]); assay: SPR (Biacore T200), NANP3 peptide; type: binding, Plasmodium falciparum
Experimental: (§4) With the exception of NANP6, all other peptides were acetylated at N-termini and amidated at C-termini. NANP6 contained an N-terminal biotin-aminohexanoic acid tag and an unmodified C terminus.
(§5) Affinity of 56 VH3-33 mAbs to DND and NANP3 peptides were measured using SPR in Biacore Cytiva T200, as described before.[21] In brief, series S sensor chip CM5 (GE Healthcare) was docked in the instrument and 10 mM HEPES (pH 7.4) containing 200 mM NaCl, 0.02% Tween 20 and 0.05% BSA was used as running buffer. Anti-human IgG from human antibody capture kit (GE Healthcare) was immobilized in both flow cells through amine coupling following manufacturer’s instructions. […] Upon stabilizing flow cells with running buffer for 20 min, indicated peptides synthesized at PSL Heidelberg were injected at 0, 0.015, 0.09, 0.55, 3.3 and 20 μM concentration at a flow rate of 30 μL/min. Association and dissociation of the peptides were measured at 25°C for 60 s and 180 s, respectively. 3M MgCl2 was used for the regeneration of both flow cells. 1:1 binding model or steady-state kinetic analysis in the Biacore T200 software V2.0 was used for fitting the data and obtaining kinetic rates and constant.

[8] = molecular target: DND peptide ([…]); assay: SPR (Biacore T200), DND peptide; type: binding, Plasmodium falciparum
Experimental: as §4, §5

[9] = test system: KQPA peptide ([…]); assay: Peptide ELISA (AUC), KQPA; type: binding, Plasmodium falciparum
Experimental: as §4
(§6) Antigen ELISAs were performed as previously described.[21]^,[25] In brief, high-binding 384-well polystyrene plates (Corning) were coated overnight at 4°C with 2 μg/mL of the indicated peptides synthesized at PSL, Heidelberg. Plates were washed three times with 0.05% Tween 20 in PBS, blocked with 50 μL of 1% BSA in PBS for 1 h at room temperature (RT), and washed again. For analysis of mAbs, 15 μL/well of serially diluted mAbs (starting concentration 1.0 μg/mL, 1 in 4 dilution for 4 steps) were incubated for 2 h at RT. Wells were washed six times and incubated with goat anti-human IgG-HRP at a 1:1000 dilution (Jackson ImmunoResearch) in PBS with 1% BSA for 1 h. Wells were washed again and one-step ABTS substrate (RT, 20 μL/well; Roche) and 1× KPL ABTS peroxidase stop solution (RT, 20 μL/well; SeraCare Life Sciences) were used for detection. Area under the ELISA curve (AUC) was calculated using GraphPad Prism 7.04 (GraphPad).

[10] = test system: NANP3 peptide ([…]); assay: Peptide ELISA (AUC), NANP3; type: binding, Plasmodium falciparum
Experimental: as §4, §6

[11] = test system: DND peptide ([…]); assay: Peptide ELISA (AUC), DND; type: binding, Plasmodium falciparum; conditions: ELISA Area Under the Curve
Experimental: as §4, §6

[12] = test system: NDN peptide ([…]); assay: Peptide ELISA (AUC), NDN; type: binding, Plasmodium falciparum
Experimental: as §4, §6

[13] = molecular target: NANP6 peptide ([…]); assay: SPR (Carterra LSA), NANP6 peptide; type: binding, Plasmodium falciparum; conditions: mAb immobilized on CMD200M chip, peptide 2-fold series, top 8 μg/mL (2.92 μM), 1X HBSTE pH 7.4, 25°C, 1:1 Langmuir model, mean of best triplicate, KD includes avidity effect for antigens with multiple repeats of epitopes
Text: as §1, §2, §3

[14] = test system: NPDP peptide ([…]); assay: Peptide ELISA (AUC), NPDP; type: binding, Plasmodium falciparum; conditions: plates coated with 2 μg/mL peptide; mAb from 1.0 μg/mL, 1 in 4 dilution, 4 steps; area under ELISA curve; mean of three independent experiments
Experimental: as §4, §6

[15] = plates coated with 2 μg/mL peptide, mAb from 1.0 μg/mL, 1 in 4 dilution, 4 steps, area under ELISA curve, mean of three independent experiments

Substance: Ky311: VH3-33/Vk3-11 anti-PfCSP mAb from Kymouse platform, expressed as human IgG1; MGG4-like binding mode
- Liver Burden Assay Reduction [1]: 75%
- Traversal Inhibition IC50 [2]: 0.664 µg/mL
- pKd [3]: 8.43
- pKd [4]: 8.97
- pKd [5]: 8.13
- pKd [6]: 6.37

Substance: LVQLVESGGGVVQPGRSLRLSCAASGFTFSSSGMHWVRQAPGKGLEWVAIIWYDGSNKFYADSVKGRFTISRDNSKNTLYLQMNSLRAEDTAVYYCARAYVSGSHGDKYGMDVWGQGTTVTVSS [CL-531912]
- pKd ([7]; SPR, NANP3 peptide, read-out: NANP3 KD): 7.26

Substance: QIQLVESGGGVVQPGRSLRLSCAASGFTFSTYGMHWVRQAPGKGLEWVAVIWYDGSNKYYADSVQGRFTISRDNSKNTLYLQMNSLRAEDTAIYYCTTVGPIPFDYWGQGTLVTVSS [CL-514716]
- DND KD (M) [8]: Non-binder
- NANP3 KD (M) ([7]; SPR, NANP3 peptide): Non-binder

Substance: QVQLVESGGGVVQPGGSLRLSCAASGFTFSGSGMHWVRHAPGKGLEWVAIIWYDGSNKFYADSVKGRFTISRDNSRNTLYLQMNSLRAEDTAVYYCARAYVSGNYGDKYGMDVWGQGTTVTVSS [CL-532151]
- KQPA AUC ([9]; ELISA Area Under the Curve, KQPA peptide): 1.36
- NANP3 AUC ([10]; ELISA Area Under the Curve, NANP3 peptide): 1.84
- DND AUC [11]: 2.23
- NDN AUC ([12]; ELISA Area Under the Curve, NDN peptide): 0.29

Substance: mAb CIS43: previously characterized NPDP-specific human anti-PfCSP mAb (IGHV1-3) [reference compound]
- ELISA AUC KQPA [9, 15]: 0.10
- Traversal Inhibition IC50 [2]: 0.362 µg/mL
- pKd [3]: 7.72
- pKd [4]: 5.03
- pKd [13]: 7.26
- ELISA AUC NANP3 [10, 15]: 0.20
- ELISA AUC NPDP [14]: 1.50
- pKd ([7]; Biacore T200, mAb captured via anti-human IgG on CM5, peptide 0-20 μM, 25°C, 1:1 binding model or steady-state analysis, single measurement for sample mAbs, three independent measurements for previously characterized mAbs, read-out: SPR NANP3 KD): 5.76
- ELISA AUC NDN [12, 15]: 0.20
- pKd [5]: 7.81
- SPR KQPA KD [6]: Non-binder

— paper PMC10720262, “Molecular determinants of cross-reactivity and potency by VH3-33 antibodies against the Plasmodium falciparum circumsporozoite protein” (Cell Reports, 2023)
